Our source for the TGI and GI50 values is PubChem BioAssay (NCI).

Values joined by “and” are separate entries in the source; they are usually repeats but may differ in a detail not shown here. Identical values can stand only once.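 Test compounds were applied to cells in 96-well plates for 48 hours at 5 doses. Abbreviation: GI50, concentration required for 50% inhibition of growth. TGI is the concentration that stops growth completely.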

Some test systems named below: A498 renal; HCC-2998 colon; HCT-116 colon; IGROV1 ovarian; M14 melanoma; OVCAR-4 ovarian; SF-268 CNS; SF-295 CNS; SK-MEL-28 melanoma; UACC-62 melanoma.
Common to all, as to assay: NCI anticancer screen, dose series, 48 h

With `CC1OC(OCC2OC(Oc3c(-c4ccc(O)cc4)oc4cc(O)cc(O)c4c3=O)C(OC3OC(C)C(O)C(O)C3O)C(O)C2O)C(O)C(O)C1O` (configuration not stated), the TGI in the assay on A498 renal is over 100 µM; in the assay with HCC-2998 colon it was over 100 µM; with HCT-116 colon, over 100 µM; in the assay on IGROV1 ovarian it was over 100 µM; with M14 melanoma, over 100 µM; with OVCAR-4 ovarian it was over 90.2 µM. The TGI in the assay with SF-268 CNS, in the assay with SF-295 CNS, in the assay with SK-MEL-28 melanoma and in the assay on UACC-62 melanoma was over 100 µM in each case.

In the case of `CCO/C=C/C(C)C1(C(=O)OCC)CCCCC1=O` (configuration not stated), the TGI in the assay on A498 renal, with HCC-2998 colon, with HCT-116 colon, with IGROV1 ovarian, in the assay with M14 melanoma and in the assay on OVCAR-4 ovarian was over 100 µM each time. For the same compound, the TGI in the assay on SF-268 CNS, in the assay on SF-295 CNS, in the assay with SK-MEL-28 melanoma and in the assay on UACC-62 melanoma was over 100 µM throughout.

As for `O=C([CH-]C(=O)c1ccccc1)c1ccccc1.O=C([CH-]C(=O)c1ccccc1)c1ccccc1.O=C([CH-]C(=O)c1ccccc1)c1ccccc1.[Nd+3].[OH3+]`, the GI50 with A498 renal is 9 µM; in the assay with HCC-2998 colon it was 4.73 µM; with HCT-116 colon, 4.92 µM; with IGROV1 ovarian, 6.72 µM; with M14 melanoma, 6.89 µM; with OVCAR-4 ovarian, 6.63 µM. Further, the GI50 in the assay on SF-268 CNS is 4.16 µM; in the assay on SF-295 CNS, 2.07 µM; with SK-MEL-28 melanoma it was 7.74 µM; in the assay on UACC-62 melanoma, 4.3 µM. Also, the TGI in the assay with A498 renal was determined as 27.3 µM; in the assay on HCC-2998 colon, 19 µM; with HCT-116 colon, 19.1 µM; with IGROV1 ovarian, 49.8 µM; with M14 melanoma, 21.2 µM; in the assay on OVCAR-4 ovarian, 51.7 µM. Also, the TGI was found to be 31.1 µM with SF-268 CNS, 13.5 µM with SF-295 CNS, 30.4 µM in the assay on SK-MEL-28 melanoma and 19.2 µM in the assay with UACC-62 melanoma.

Take `C1C[OH+]CC[OH+]CCNCC[OH+]CC[OH+]CCN1.[Cl-].[Pt+4]`: the GI50 in the assay with A498 renal, in the assay on HCC-2998 colon, with HCT-116 colon, in the assay with IGROV1 ovarian, in the assay on M14 melanoma and in the assay with OVCAR-4 ovarian was over 100 µM each time. For the same compound, the GI50 is over 100 µM in the assay with SF-268 CNS, over 100 µM with SF-295 CNS, over 100 µM in the assay with SK-MEL-28 melanoma and 91.9 µM in the assay with UACC-62 melanoma. The TGI in the assay on A498 renal, with HCC-2998 colon, in the assay on HCT-116 colon, in the assay on IGROV1 ovarian, in the assay on M14 melanoma and in the assay on OVCAR-4 ovarian was over 100 µM in each case. Also, the TGI in the assay on SF-268 CNS, in the assay on SF-295 CNS, with SK-MEL-28 melanoma and with UACC-62 melanoma was over 100 µM in each case.

For `CC(=O)NNc1nc(C)c(C(=O)NNC(=O)C(=O)Nc2c(C)cccc2C)s1`, the TGI with A498 renal, with HCC-2998 colon, in the assay with HCT-116 colon, in the assay with IGROV1 ovarian, in the assay on M14 melanoma and with OVCAR-4 ovarian was over 100 µM in each case. The TGI in the assay with SF-268 CNS, with SF-295 CNS, with SK-MEL-28 melanoma and in the assay with UACC-62 melanoma was over 100 µM each time.

For `CCCC(=O)Nc1cc(C(=O)N2C[C@@H]3C[C@]34C2=CC(=O)c2[nH]cc(C)c24)n(COC)c1`, the TGI was 19.2 µM and 25.1 µM in the assay on A498 renal; 9.71 µM and 10.2 µM with HCC-2998 colon; 50 µM and 11.8 µM in the assay on HCT-116 colon; 50 µM and 5.96 µM in the assay with M14 melanoma; 20.3 µM and 19.9 µM in the assay on OVCAR-4 ovarian; 10.6 µM and 33.3 µM with SF-268 CNS. Moreover, the TGI in the assay with SF-295 CNS is 50 µM and 20.4 µM; in the assay with SK-MEL-28 melanoma, 34.2 µM and 10.7 µM; with UACC-62 melanoma it was 13.5 µM and 8.75 µM. The GI50 is 2.88 µM in the assay with HCC-2998 colon; 2.69 µM in the assay on HCT-116 colon; 1.35 µM with IGROV1 ovarian; 2.05 µM in the assay on M14 melanoma; 3.46 µM with SF-268 CNS; 5.4 µM with SF-295 CNS. The GI50 in the assay on SK-MEL-28 melanoma is 3.08 µM; in the assay on UACC-62 melanoma, 2.84 µM.

Turning to `COc1ccc(C2SCC(=O)N2NC(=O)C(O)c2ccccc2)cc1OC` (configuration not stated), the GI50 in the assay with A498 renal, with HCC-2998 colon, in the assay with HCT-116 colon, in the assay on IGROV1 ovarian, in the assay on M14 melanoma and in the assay with OVCAR-4 ovarian was over 100 µM in each case. For the same compound, the GI50 in the assay with SF-268 CNS, in the assay on SF-295 CNS, in the assay on SK-MEL-28 melanoma and in the assay with UACC-62 melanoma was over 100 µM in each case. Further, the TGI in the assay on A498 renal, in the assay on HCC-2998 colon, with HCT-116 colon, with IGROV1 ovarian, in the assay with M14 melanoma and in the assay with OVCAR-4 ovarian was over 100 µM throughout. Also, the TGI in the assay with SF-268 CNS, with SF-295 CNS, in the assay on SK-MEL-28 melanoma and with UACC-62 melanoma was over 100 µM throughout.

For `Oc1ccc(C(c2ccc(O)cc2)c2ccc(Cl)cn2)cc1`, the GI50 with A498 renal is 0.344 µM; in the assay on HCC-2998 colon, 0.279 µM; in the assay on HCT-116 colon it was 0.473 µM; with IGROV1 ovarian, 0.378 µM; in the assay with M14 melanoma, 21.3 µM; in the assay on OVCAR-4 ovarian it was 0.0243 µM. Besides, the GI50 in the assay on SF-268 CNS is 25.9 µM; with SF-295 CNS it was 0.403 µM; in the assay with SK-MEL-28 melanoma, 28 µM; in the assay on UACC-62 melanoma it was 1.59 µM. Also, the TGI is 26.5 µM in the assay with A498 renal; 9.36 µM in the assay with HCC-2998 colon; over 100 µM in the assay with HCT-116 colon; 42 µM in the assay on IGROV1 ovarian; over 100 µM in the assay on M14 melanoma; 0.0598 µM in the assay on OVCAR-4 ovarian. Moreover, the TGI with SF-268 CNS was over 100 µM; with SF-295 CNS, 7.21 µM; with SK-MEL-28 melanoma it was over 100 µM; in the assay with UACC-62 melanoma it was 17.8 µM.

For the compound `O=C(/C=C/c1ccccc1)CC1OC(=O)c2ccccc21` (configuration not stated), the TGI in the assay with A498 renal, with HCC-2998 colon, in the assay on HCT-116 colon, with IGROV1 ovarian, with M14 melanoma and in the assay on OVCAR-4 ovarian was over 100 µM throughout. Further, the TGI with SF-268 CNS is over 100 µM; in the assay on SF-295 CNS it was over 100 µM; with SK-MEL-28 melanoma, over 100 µM; in the assay with UACC-62 melanoma it was 66.5 µM.
